Here are results for 4 molecules from patent US20100311698A1, “AQUEOUS BASED PHARMACEUTICAL FORMULATIONS OF WATER-SOLUABLE PRODRUGS OF PROPOFOL” (EISAI C[…] NORTH AMERICA, priority 2006, published 2010).

The nature of one data set: Water solubility. As to conditions: degradation products of the prodrug. It counts as physicochemical.
Data set [1] is described as follows: DIP (propofol) formation by hydrolysis at accelerated stability conditions as a function of pH. It counts as physicochemical. The following applies: for DIP formation: 40° C./75% RH. The source says: This example illustrates that the degradation of O-phosphonooxymethyl propofol is pH dependent. In particular, higher pH conditions generally result in lower rates of hydrolysis (degradation) of the prodrug, while lower pH conditions increase the rate of hydrolysis. […]

The conditions of data set [2]: background statement; cited from earlier work.
For data set [3] the following is noted: anesthetic induction doses; cited from earlier work.
For data set [4] the following is noted: commercially available formulations; cited from earlier work.

Like-named read-outs stand apart in the source and are kept apart here.

In the case of quinone, in the data set “Water solubility”, the Water solubility result is “poorly water-soluble”.
`CC(C)c1cccc(C(C)C)c1OCOP(=O)(O)O` [O-phosphonooxymethyl propofol, O-phosphonooxymethyl-propofol]: the DIP formation was 1.22 % w/v in data set [1] (pH 6.9, 1 month); 1.90 % w/v in data set [1] (pH 6.9, 3 months); 3.47 % w/v in data set [1] (pH 6.9, 6 months); 0.83 % w/v in data set [1] (pH 7.4, 1 month); 0.67 % w/v in data set [1] (pH 7.4, 3 months); 2.14 % w/v in data set [1] (pH 7.4, 6 months). Also, the DIP formation is on record as 0.32 % w/v in data set [1] (pH 8.0, 1 month); 0.76 % w/v in data set [1] (pH 8.0, 3 months); 0.72 % w/v in data set [1] (pH 8.0, 6 months); 0.15 % w/v in data set [1] (pH 8.5, 1 month); 0.41 % w/v in data set [1] (pH 8.5, 3 months); 0.73 % w/v in data set [1] (pH 8.5, 6 months). Besides, the DIP formation in data set [1] (pH 9.1, 3 months) was determined as 0.12 % w/v; in data set [1] (pH 9.1, 6 months) it was 0.22 % w/v; in data set [1] (pH 9.9, 6 months), 0.09 % w/v. Besides, in data set [1] (pH of about 9-9.5, 40° C., 75% RH), the Amount of hydrolysis entry is reported as “least amount of hydrolysis”.
Turning to `CC(C)c1cccc(C(C)C)c1O` [propofol], the values for the Water solubility result (in “Water solubility”; in data set [2]) were “poorly water-soluble” and “poorly water soluble”, respectively. Besides, the “Respiratory consequences, including a reduction in tidal volume and apnea” value in data set [3] is listed as “up to 83 % of patients”. Moreover, the Oral bioavailability entry in data set [4] is reported as “very low”.
Consider `Oc1ccc(O)cc1` [hydroquinone], for which the Water solubility entry in “Water solubility” is listed as “poorly water-soluble”.
